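Grown in 96-well plates, cells were treated for 48 hours with each compound at five concentrations. Insufficient inhibition: endpoint recorded as highest concentration tested. Abbreviation: GI50, concentration required for 50% inhibition of growth.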 Activity calls are given as the source filed them. No stated cut-off is given here; in the data, active = GI50 up to about 1.1 µM and inactive = higher.
Columns and labels:
Experiment in all cases: NCI-60 cell line screen, 48 h
SK-MEL-2 = test system: SK-MEL-2
T47D = test system: T47D
Hs-578T = test system: Hs-578T
SK-MEL-28 = test system: SK-MEL-28
NCI-H522 = test system: NCI-H522
SN12C = test system: SN12C
LOX IMVI = test system: LOX IMVI
SNB-75 = test system: SNB-75
HOP-62 = test system: HOP-62
NCI-H460 = test system: NCI-H460
OVCAR-5 = test system: OVCAR-5
A549 = test system: A549
EKVX = test system: EKVX
UACC-257 = test system: UACC-257
OVCAR-3 = test system: OVCAR-3
NCI/ADR-RES = test system: NCI/ADR-RES
DU-145 = test system: DU-145
ACHN = test system: ACHN
RPMI-8226 = test system: RPMI-8226
U-251 = test system: U-251
SK-OV-3 = test system: SK-OV-3
MCF7 = test system: MCF7
MDA-N = test system: MDA-N
RXF 393 = test system: RXF 393
OVCAR-8 = test system: OVCAR-8
SW-620 = test system: SW-620
OVCAR-4 = test system: OVCAR-4
CCRF-CEM = test system: CCRF-CEM
MDA-MB-231 = test system: MDA-MB-231
HOP-92 = test system: HOP-92
SR = test system: SR
IGROV-1 = test system: IGROV-1
786-0 = test system: 786-0
UACC-62 = test system: UACC-62
CAKI-1 = test system: CAKI-1
SNB-19 = test system: SNB-19
HCT-116 = test system: HCT-116
SF-539 = test system: SF-539
K562 = test system: K562
COLO 205 = test system: COLO 205
M14 = test system: M14
KM12 = test system: KM12
TK-10 = test system: TK-10
HT-29 = test system: HT-29
MDA-MB-435 = test system: MDA-MB-435
NCI-H23 = test system: NCI-H23
HCT-15 = test system: HCT-15
SK-MEL-5 = test system: SK-MEL-5
UO-31 = test system: UO-31
PC-3 = test system: PC-3
A498 = test system: A498
SF-295 = test system: SF-295
Malme-3M = test system: Malme-3M
SF-268 = test system: SF-268
NCI-H226 = test system: NCI-H226
MOLT-4 = test system: MOLT-4
HCC 2998 = test system: HCC 2998
HL-60 = test system: HL-60

Structure (SMILES): COc1ccc(N(CN2C(=O)CCC2OC)C(C)=O)cc1 (centres undefined)
- GI50 (SK-MEL-2): > 100 µM (inactive)
- GI50 (T47D): > 100 µM (inactive)
- GI50 (Hs-578T): > 100 µM (inactive)
- GI50 (SK-MEL-28): > 100 µM (inactive)
- GI50 (NCI-H522): > 100 µM (inactive)
- GI50 (SN12C): > 100 µM (inactive)
- GI50 (LOX IMVI): > 100 µM (inactive)
- GI50 (SNB-75): > 100 µM (inactive)
- GI50 (HOP-62): > 100 µM (inactive)
- GI50 (NCI-H460): > 100 µM (inactive)
- GI50 (OVCAR-5): > 100 µM (inactive)
- GI50 (A549): > 100 µM (inactive)
- GI50 (EKVX): > 100 µM (inactive)
- GI50 (UACC-257): > 100 µM (inactive)
- GI50 (OVCAR-3): > 100 µM (inactive)
- GI50 (NCI/ADR-RES): > 100 µM (inactive)
- GI50 (DU-145): > 100 µM (inactive)
- GI50 (ACHN): > 100 µM (inactive)
- GI50 (RPMI-8226): > 100 µM (inactive)
- GI50 (U-251): > 100 µM (inactive)
- GI50 (SK-OV-3): > 100 µM (inactive)
- GI50 (MCF7): > 100 µM (inactive)
- GI50 (MDA-N): > 100 µM (inactive)
- GI50 (RXF 393): > 100 µM (inactive)
- GI50 (OVCAR-8): > 100 µM (inactive)
- GI50 (SW-620): > 100 µM (inactive)
- GI50 (OVCAR-4): > 100 µM (inactive)
- GI50 (CCRF-CEM): > 100 µM (inactive)
- GI50 (MDA-MB-231): > 100 µM (inactive)
- GI50 (HOP-92): > 100 µM (inactive)
- GI50 (SR): > 100 µM (inactive)
- GI50 (IGROV-1): > 100 µM (inactive)
- GI50 (786-0): > 100 µM (inactive)
- GI50 (UACC-62): > 100 µM (inactive)
- GI50 (CAKI-1): > 100 µM (inactive)
- GI50 (SNB-19): > 100 µM (inactive)
- GI50 (HCT-116): > 100 µM (inactive)
- GI50 (SF-539): > 100 µM (inactive)
- GI50 (K562): > 100 µM (inactive)
- GI50 (COLO 205): > 100 µM (inactive)
- GI50 (M14): > 100 µM (inactive)
- GI50 (KM12): > 100 µM (inactive)
- GI50 (TK-10): > 100 µM (inactive)
- GI50 (HT-29): > 100 µM (inactive)
- GI50 (MDA-MB-435): > 100 µM (inactive)
- GI50 (NCI-H23): > 100 µM (inactive)
- GI50 (HCT-15): > 100 µM
- GI50 (SK-MEL-5): > 100 µM (inactive)
- GI50 (UO-31): > 100 µM (inactive)
- GI50 (PC-3): > 100 µM (inactive)
- GI50 (A498): > 100 µM (inactive)
- GI50 (SF-295): > 100 µM (inactive)
- GI50 (Malme-3M): > 100 µM (inactive)
- GI50 (SF-268): > 100 µM (inactive)
- GI50 (NCI-H226): > 100 µM (inactive)
- GI50 (MOLT-4): > 100 µM (inactive)

Structure (SMILES): CC(C)c1ccccc1SCc1cc(=O)cc(CSc2ccccc2C(C)C)o1
- GI50 (SK-MEL-2): 17.4 µM (inactive)
- GI50 (T47D): 24 µM (inactive)
- GI50 (Hs-578T): 13.5 µM (inactive)
- GI50 (SK-MEL-28): 32.7 µM (inactive)
- GI50 (LOX IMVI): 26.8 µM (inactive)
- GI50 (SNB-75): 19.4 µM (inactive)
- GI50 (HOP-62): 20.7 µM (inactive)
- GI50 (HCC 2998): 30.3 µM (inactive)
- GI50 (NCI-H460): 21.1 µM (inactive)
- GI50 (OVCAR-5): 15.3 µM (inactive)
- GI50 (A549): 19.7 µM (inactive)
- GI50 (EKVX): 19.3 µM (inactive)
- GI50 (UACC-257): 20.5 µM (inactive)
- GI50 (OVCAR-3): 17.9 µM (inactive)
- GI50 (NCI/ADR-RES): 17.7 µM (inactive)
- GI50 (DU-145): 23.1 µM (inactive)
- GI50 (ACHN): 32.6 µM (inactive)
- GI50 (RPMI-8226): 32.4 µM (inactive)
- GI50 (U-251): 22 µM (inactive)
- GI50 (SK-OV-3): 22.1 µM (inactive)
- GI50 (MCF7): 18.2 µM (inactive)
- GI50 (MDA-N): 18.8 µM (inactive)
- GI50 (RXF 393): 31 µM (inactive)
- GI50 (OVCAR-8): 22.7 µM (inactive)
- GI50 (SW-620): 34.2 µM (inactive)
- GI50 (OVCAR-4): 19.5 µM (inactive)
- GI50 (CCRF-CEM): 26.9 µM (inactive)
- GI50 (MDA-MB-231): 17.9 µM (inactive)
- GI50 (HOP-92): 15.2 µM (inactive)
- GI50 (SR): 31.7 µM (inactive)
- GI50 (IGROV-1): 14.5 µM (inactive)
- GI50 (UACC-62): 16.7 µM (inactive)
- GI50 (CAKI-1): 18.5 µM (inactive)
- GI50 (SNB-19): 32.7 µM (inactive)
- GI50 (K562): 48.1 µM (inactive)
- GI50 (COLO 205): 37.2 µM (inactive)
- GI50 (M14): 20.2 µM (inactive)
- GI50 (KM12): 15.7 µM (inactive)
- GI50 (TK-10): 17.9 µM (inactive)
- GI50 (HT-29): 19.8 µM (inactive)
- GI50 (MDA-MB-435): 15 µM (inactive)
- GI50 (NCI-H23): 37.6 µM (inactive)
- GI50 (HCT-15): 24.7 µM
- GI50 (SK-MEL-5): 24.1 µM (inactive)
- GI50 (UO-31): 27.4 µM (inactive)
- GI50 (PC-3): 13.7 µM (inactive)
- GI50 (HL-60): 22.9 µM (inactive)
- GI50 (A498): 20.3 µM (inactive)
- GI50 (SF-295): 17.7 µM (inactive)
- GI50 (Malme-3M): 25.2 µM (inactive)
- GI50 (SF-268): 16.8 µM (inactive)
- GI50 (NCI-H226): 21.2 µM (inactive)
- GI50 (MOLT-4): 22.6 µM (inactive)

Structure (SMILES): Cc1cc2nc3ccccc3n2c2ccccc12
- GI50 (SK-MEL-2): > 10 µM (inactive)
- GI50 (T47D): > 10 µM (inactive)
- GI50 (Hs-578T): > 10 µM (inactive)
- GI50 (SK-MEL-28): > 10 µM (inactive)
- GI50 (NCI-H522): > 10 µM (inactive)
- GI50 (SN12C): > 10 µM (inactive)
- GI50 (LOX IMVI): > 10 µM (inactive)
- GI50 (SNB-75): > 10 µM (inactive)
- GI50 (HOP-62): > 10 µM (inactive)
- GI50 (HCC 2998): > 10 µM (inactive)
- GI50 (NCI-H460): 4.3 µM (inactive)
- GI50 (OVCAR-5): > 10 µM (inactive)
- GI50 (A549): > 10 µM (inactive)
- GI50 (EKVX): 1.81 µM (inactive)
- GI50 (UACC-257): > 10 µM (inactive)
- GI50 (OVCAR-3): > 10 µM (inactive)
- GI50 (NCI/ADR-RES): > 10 µM (inactive)
- GI50 (DU-145): > 10 µM (inactive)
- GI50 (ACHN): > 10 µM (inactive)
- GI50 (RPMI-8226): > 10 µM (inactive)
- GI50 (U-251): > 10 µM (inactive)
- GI50 (SK-OV-3): > 10 µM (inactive)
- GI50 (MCF7): > 10 µM (inactive)
- GI50 (MDA-N): > 10 µM (inactive)
- GI50 (RXF 393): > 10 µM (inactive)
- GI50 (OVCAR-8): > 10 µM (inactive)
- GI50 (SW-620): > 10 µM (inactive)
- GI50 (OVCAR-4): > 10 µM (inactive)
- GI50 (CCRF-CEM): 5.96 µM (inactive)
- GI50 (MDA-MB-231): > 10 µM (inactive)
- GI50 (SR): > 10 µM (inactive)
- GI50 (IGROV-1): > 10 µM (inactive)
- GI50 (786-0): > 10 µM (inactive)
- GI50 (UACC-62): > 10 µM (inactive)
- GI50 (CAKI-1): > 10 µM (inactive)
- GI50 (SNB-19): > 10 µM (inactive)
- GI50 (HCT-116): > 10 µM (inactive)
- GI50 (SF-539): > 10 µM (inactive)
- GI50 (K562): > 10 µM (inactive)
- GI50 (COLO 205): > 10 µM (inactive)
- GI50 (M14): > 10 µM (inactive)
- GI50 (KM12): > 10 µM (inactive)
- GI50 (TK-10): > 10 µM (inactive)
- GI50 (HT-29): > 10 µM (inactive)
- GI50 (MDA-MB-435): > 10 µM (inactive)
- GI50 (NCI-H23): > 10 µM (inactive)
- GI50 (HCT-15): > 10 µM
- GI50 (SK-MEL-5): > 10 µM (inactive)
- GI50 (PC-3): > 10 µM (inactive)
- GI50 (HL-60): > 10 µM (inactive)
- GI50 (SF-295): > 10 µM (inactive)
- GI50 (Malme-3M): > 10 µM (inactive)
- GI50 (SF-268): > 10 µM (inactive)
- GI50 (NCI-H226): 6.17 µM (inactive)
- GI50 (MOLT-4): > 10 µM (inactive)

— ChEMBL document CHEMBL1201862, “PubChem BioAssay data set” (2004)
